The record followed here is PubChem BioAssay (NCI).

Molecules are shown by their SMILES.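 Interpolation was linear, between the two tested concentrations surrounding the appropriate level; five concentrations were tested over 48 hours in 96-well plates. Here, GI50 denotes the concentration required for 50% inhibition of growth. Definition used: TGI = concentration required for complete inhibition of growth.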

Holding throughout (assay): NCI anticancer screen, dose series, 48 h
The test system of test [1] is RXF 393 renal.
Test [2] relates to HS 578T breast.
Test [3] relates to MDA-MB-231 breast.
The test system of test [4] is ACHN renal.
The subject of test [5] is SK-MEL-28 melanoma.
The subject of test [6] is MCF7 breast.
Test [7] has as its system UACC-257 melanoma.
For test [8], the system named is HCC-2998 colon.

For the molecule `Nc1ccc(-c2nc3ccccc3[nH]2)c(O)c1`, the GI50 in test [1] is 35.4 µM; in test [2] it was 21.5 µM; in test [3] it was 17 µM; in test [4] it was 24.3 µM; in test [5], 53.9 µM; in test [6], 30.3 µM. The GI50 in test [7] was 18.6 µM. Besides, the TGI in test [1] is > 100 µM; in test [2], 71.7 µM; in test [3], 47.3 µM; in test [4] it was 82.9 µM; in test [5], > 100 µM; in test [6] it was > 100 µM. This molecule also returned a TGI in test [7] of 49.2 µM.
As for `Nc1ccc(N=Nc2ccccc2)c(N)n1`, the GI50 was 20.3 µM in test [1]; 24.8 µM in test [8]; 18 µM in test [3]; 37.2 µM in test [4]; 38.6 µM in test [7]. The TGI in test [1] is 60.7 µM; in test [8], 58.8 µM; in test [3], 73.7 µM; in test [4] it was > 100 µM; in test [7] it was > 100 µM.
For the molecule `CCN(CC)CCOc1ccc(Nc2ncc3cc(-c4c(Cl)cccc4Cl)c(=O)n(CCOC)c3n2)cc1`, the GI50 in test [1] was 0.0184 µM; in test [8], 1.25 µM; in test [2], 0.0273 µM; in test [3], 0.0432 µM; in test [4], 0.0205 µM; in test [5] it was 1.71 µM. Besides, the values for the GI50 in test [6] and in test [7] were 1.57 µM and 0.881 µM, respectively. The TGI in test [1] was determined as 0.133 µM; in test [8], 3.57 µM; in test [2] it was 1.57 µM; in test [3] it was 0.813 µM; in test [4], 5.72 µM; in test [5] it was 8.97 µM. Also, the TGI in test [6] was 8.4 µM; in test [7], 4.58 µM.
As to `COc1cc(C(=O)/C=C/c2c(-c3ccc(F)cc3)nc3sc(C)cn23)cc(OC)c1OC`, the GI50 was 5.75 µM in test [1]; 9.93 µM in test [8]; 8.29 µM in test [2]; 5.38 µM in test [3]; 5.83 µM in test [4]; 7.07 µM in test [5]. Besides, the figures for the GI50 in test [6] and in test [7] were 1.81 µM and 4.75 µM, respectively. Moreover, the TGI in test [1], in test [8], in test [2], in test [3], in test [4] and in test [5] was > 100 µM throughout. Moreover, the TGI in test [6] and in test [7] was > 100 µM each time.
As to `COc1cc2c(c(OC)c1OC)-c1ccc(NNC(=S)N(Cc3cccc(C[N+](Cc4cccc(CNC56CC7CC(CC(C7)C5)C6)c4)(Cc4cccc(CNC56CC7CC(CC(C7)C5)C6)c4)Cc4cccc(CN(C(=S)NNc5ccc6c(cc5=O)[C@@H](NC(C)=O)CCc5cc(OC)c(OC)c(OC)c5-6)C56CC7CC(CC(C7)C5)C6)c4)c3)C34CC5CC(CC(C5)C3)C4)c(=O)cc1[C@@H](NC(C)=O)CC2` (stereo partly drawn), the GI50 was 1.7 µM in test [1]; 0.635 µM in test [8]; 1.22 µM in test [2]; 0.994 µM in test [3]; 3.68 µM in test [4]; 1.02 µM in test [5]. Moreover, the results for the GI50 in test [6] and in test [7] were 0.862 µM and 4.51 µM, respectively. Besides, the TGI in test [1] was determined as 6.65 µM; in test [8], 1.47 µM; in test [2], 6.76 µM; in test [3] it was 2.99 µM; in test [4], 7.99 µM; in test [5], 4.07 µM. Also, the TGI in test [6] stood at 3.44 µM; in test [7], 10.3 µM.
For `NC(=O)C(Br)CBr` (stereo not drawn), the GI50 was 1.27 µM in test [1]; 2.18 µM in test [8]; 2.86 µM in test [2]; 2.3 µM in test [3]; 0.816 µM in test [4]; 1.69 µM in test [5]. The GI50 is 2.18 µM in test [6] and 1.64 µM in test [7]. Besides, the TGI came to 2.7 µM in test [1]; 4.78 µM in test [8]; 14.3 µM in test [2]; 4.76 µM in test [3]; 2.18 µM in test [4]; 3.29 µM in test [5]. Further, the values for the TGI in test [6] and in test [7] were 11.5 µM and 3.27 µM, respectively.
As to `C[C@]12CC/C(=N\N)C[C@@H]1CC[C@@H]1[C@@H]2CC[C@]2(C)/C(=N/N)CC[C@@H]12`, the GI50 in test [1], in test [8], in test [3], in test [4], in test [6] and in test [7] was > 100 µM in each case. For the same molecule, the TGI in test [1], in test [8], in test [3], in test [4], in test [6] and in test [7] was > 100 µM in each case.
With `CC1=C(SCc2ccccc2)C(=O)c2ccccc2C1=O`, the TGI came out at 30.4 µM in test [1]; 57 µM in test [8]; 41.3 µM in test [3]; 27.2 µM in test [4]; 36.5 µM in test [5]; 40.6 µM in test [6]. The TGI in test [7] is 31.4 µM.
`C=C1C(=O)O[C@H]2[C@H]1CC/C(CNC(=O)/C=C/c1cccc(OC)c1)=C\CC[C@@]1(C)O[C@@H]21`: the GI50 in test [1] was 1.05 µM; in test [8], 1.83 µM; in test [2] it was 2.2 µM; in test [3], 1.79 µM; in test [4] it was 1.14 µM; in test [5] it was 1.74 µM. Besides, the GI50 in test [7] was 1.45 µM. Besides, the TGI worked out at 2.33 µM in test [1]; 3.31 µM in test [8]; 11.2 µM in test [2]; 4.07 µM in test [3]; 2.67 µM in test [4]; 4.23 µM in test [5]. Further, the TGI in test [7] was found to be 2.98 µM.
Consider `C[N+](C)([O-])CCCNc1c2ccccc2nc2cccc([N+](=O)[O-])c12`, for which the TGI in test [1] worked out at 0.349 µM; in test [8] it was 0.393 µM; in test [2] it was 7.63 µM; in test [3] it was 1.48 µM; in test [4], 3.74 µM; in test [6], 0.623 µM. The TGI in test [7] was 2.25 µM.
In the case of `CCOC(=O)c1cc2c(n1Cc1cc(OC)cc(OC)c1)-c1oncc1CCC2`, the GI50 was 0.0987 µM in test [1]; 0.322 µM in test [8]; 0.0492 µM in test [2]; 0.439 µM in test [3]; 0.0674 µM in test [4]; 0.143 µM in test [5]. Also, the GI50 in test [6] is 0.0401 µM. For the same molecule, the TGI in test [1] is > 100 µM; in test [8], > 100 µM; in test [2], > 100 µM; in test [3], > 24.5 µM; in test [4], > 100 µM; in test [5] it was > 100 µM. The TGI in test [6] was > 100 µM.
Take `O=Nc1c(-c2cccc([N+](=O)[O-])c2)nc2cnccn12`: the TGI was > 100 µM in test [1]; > 100 µM in test [2]; 26.7 µM in test [3]; 14.2 µM in test [4]; 50.3 µM in test [5]; > 100 µM in test [6]. The molecule further gave a TGI in test [7] of 41 µM.
Consider `CSc1ccc(-c2cc(-c3ccc(NC(=O)CCCN4CCCC4)cc3)nc(-c3ccc(NC(=O)CCCN4CCCC4)cc3)c2)cc1`, for which the GI50 in test [1] was 2.23 µM; in test [8], 2.49 µM; in test [2], 2.28 µM; in test [3], 1.85 µM; in test [4], 3.65 µM; in test [5], 3.83 µM. The GI50 in test [7] was 4.94 µM. For the same molecule, the TGI amounted to 5.93 µM in test [1]; 6.5 µM in test [8]; 6.38 µM in test [2]; 3.69 µM in test [3]; 13.9 µM in test [4]; 20.7 µM in test [5]. In test [7], this molecule had a TGI of 25.2 µM.
Regarding `O=C(Cn1c(=O)c(-c2ccccc2)nc2ccccc21)c1cccnc1`, the GI50 in test [8], in test [2], in test [3], in test [4], in test [5] and in test [6] was > 100 µM in each case. Further, the GI50 in test [7] was > 100 µM. Moreover, the TGI in test [8], in test [2], in test [3], in test [4], in test [5] and in test [6] was > 100 µM throughout. The TGI in test [7] is > 100 µM.
For `c1cc(C2CCCCC2)ccc1OCCCCCCN1CCNCC1`, the GI50 was 2.14 µM in test [8]; 1.96 µM in test [2]; 1.61 µM in test [3]; 1.78 µM in test [4]; 2.96 µM in test [5]; 1.63 µM in test [6]. Further, in test [7], the GI50 was 1.89 µM. Also, the TGI in test [8] turned out to be 3.76 µM; in test [2], 4.48 µM; in test [3] it was 3.29 µM; in test [4], 3.33 µM; in test [5], 8.76 µM; in test [6], 3.32 µM. In test [7], this molecule gave a TGI of 3.68 µM.
With `CCON=C1C(C)(C)C(C)(C)C(C)(C)C1(C)C`, the TGI in test [1], in test [2], in test [3], in test [4], in test [5] and in test [6] was > 100 µM throughout. In test [7], the TGI was > 100 µM.
For the molecule `O=C1c2ccccc2-c2nccc3cc(Cl)nc1c23`, the GI50 in test [8] was > 48.5 µM; in test [2], 1.99 µM; in test [3] it was 4.62 µM; in test [5] it was 2.22 µM; in test [6], 1.3 µM. The TGI in test [8] was > 100 µM; in test [2] it was 14.2 µM; in test [3], > 73.4 µM; in test [5] it was 15.8 µM; in test [6], 2.72 µM.
For `ON(CCc1ccncc1)Cc1ccccc1`, the TGI in test [1], in test [2], in test [4], in test [5] and in test [6] was > 100 µM in each case.
Take `Cc1cc(=O)c2cc(N=Cc3ccc([N+](=O)[O-])o3)ccc2o1`: the TGI in test [8], in test [2], in test [3], in test [4], in test [5] and in test [6] was > 100 µM throughout. Besides, in test [7], the TGI was > 100 µM.
As for `COc1ccc(C2=CC(c3cc(OC)c(OC)c(OC)c3)NC(=O)N2)cc1OC` (stereo not drawn), the GI50 in test [1] is 3.04 µM; in test [8], 3.77 µM; in test [3], 2.84 µM; in test [4], 3.5 µM; in test [5] it was 6.97 µM; in test [6], 4.26 µM. Further, in test [7], the GI50 is 10.8 µM. Also, the TGI in test [1] came to 12.7 µM; in test [8] it was 12.6 µM; in test [3], 8.04 µM; in test [4], 43.6 µM; in test [5] it was 20.5 µM; in test [6], 14.8 µM. For the same molecule, the TGI in test [7] amounted to 23.2 µM.
As to `NC1C2C(CC(=O)O)OCC=C3CN4CCC1(C(=O)C(=O)O)C4CC32` (stereo not drawn), the TGI in test [1], in test [2], in test [3], in test [4], in test [5] and in test [6] was > 100 µM throughout. Also, the TGI in test [7] was > 100 µM.
On to `NC(N)=N/N=C/c1c(-c2cccs2)nc2sccn12`, for which the GI50 was 13.4 µM in test [3], 13.2 µM in test [4], 12.6 µM in test [5] and 20.3 µM in test [7]. Also, the TGI stood at 26.7 µM in test [3], 26.5 µM in test [4], 25.3 µM in test [5] and 37.7 µM in test [7].
For `CC/C=C\C/C=C\C[C@H](O)C/C=C1/C(=O)C=C[C@H]1C/C=C\CCC(=O)OC`, the GI50 in test [1] is 4.99 µM; in test [8], 1.6 µM; in test [2] it was 7.66 µM; in test [3], 3.5 µM; in test [4], 3.06 µM; in test [5] it was 2.85 µM. Also, the GI50 in test [6] was 2.43 µM. The TGI is > 8.25 µM in test [1]; 3.39 µM in test [8]; > 8.25 µM in test [2]; > 8.25 µM in test [3]; > 8.25 µM in test [4]; > 8.25 µM in test [5]. For the same molecule, the TGI in test [6] is > 8.25 µM.
